Laboratory results as given in article PMC4623779, “1-Octen-3-ol – the attractant that repels” (F1000Research, 2015).
Positions count from the first letter of the chain named.

What was measured:
Type in all cases: cell-based
[1] = target: T1, CquiOR114b-1 (co-expressed with CquiOrco) (Culex quinquefasciatus, UniProt A0A3G1CJK1); assay: two-electrode voltage clamp, Xenopus oocytes, current traces; settings: agonist current, 1 to 10 µM, enantiomer not stated
T1 construct: full length, 405 residues (longer C-terminus); pGEMHE, Xenopus oocytes co-expressing CquiOrco; with Odorant receptor coreceptor
T1 sequence (A0A3G1CJK1 1-405): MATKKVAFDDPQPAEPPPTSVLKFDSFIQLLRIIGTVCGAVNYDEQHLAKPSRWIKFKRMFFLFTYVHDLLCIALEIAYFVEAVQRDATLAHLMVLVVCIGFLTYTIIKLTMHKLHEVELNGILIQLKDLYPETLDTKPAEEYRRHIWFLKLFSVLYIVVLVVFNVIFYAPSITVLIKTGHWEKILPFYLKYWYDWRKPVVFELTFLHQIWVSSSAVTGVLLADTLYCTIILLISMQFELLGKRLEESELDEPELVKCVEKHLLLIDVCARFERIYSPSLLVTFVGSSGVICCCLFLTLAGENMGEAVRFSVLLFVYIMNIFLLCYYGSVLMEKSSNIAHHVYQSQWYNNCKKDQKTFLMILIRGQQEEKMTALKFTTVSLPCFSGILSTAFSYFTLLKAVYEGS

[2] = target: T2, CquiOR114b-2 (co-expressed with CquiOrco) (Culex quinquefasciatus, UniProt A0A3G1CJJ8); assay: as above; settings: agonist current, 1 to 10 µM, enantiomer not stated
T2 construct: full length, 405 residues (longer C-terminus); pGEMHE, Xenopus oocytes co-expressing CquiOrco; with Odorant receptor coreceptor
T2 sequence (A0A3G1CJJ8 1-405): T1 sequence (A0A3G1CJK1 1-405) with L63W, G122E, D129N
Excerpt: two-electrode voltage clamp, Xenopus oocytes, current traces on CquiOR114b-2 (co-expressed with CquiOrco) | CquiOR114b-2 and CquiOrco (lower trace). Compounds were delivered in the following order | CquiOR114b-2 and CquiOrco (lower trace). Compounds were delivered in the following order: 1-octyn-3-ol

[3] = target: T1, CquiOR114b-1 (co-expressed with CquiOrco); assay: two-electrode voltage clamp, Xenopus oocytes, concentration-response; settings: agonist current, 1, 10 and 100 µM, holding -80 to -70 mV
[4] = target: T3, CquiOR118b (co-expressed with CquiOrco) (Culex quinquefasciatus, UniProt A0A3G1CJJ7); assay: as above; settings: agonist current, 0.01, 0.1 and 1 µM, holding -80 to -70 mV
T3 construct: full-length short version, 391 residues, shorter N-terminus than the VectorBase prediction CPIJ013954; pGEMHE, Xenopus oocytes co-expressing CquiOrco; with Odorant receptor coreceptor
T3 sequence (A0A3G1CJJ7 1-391): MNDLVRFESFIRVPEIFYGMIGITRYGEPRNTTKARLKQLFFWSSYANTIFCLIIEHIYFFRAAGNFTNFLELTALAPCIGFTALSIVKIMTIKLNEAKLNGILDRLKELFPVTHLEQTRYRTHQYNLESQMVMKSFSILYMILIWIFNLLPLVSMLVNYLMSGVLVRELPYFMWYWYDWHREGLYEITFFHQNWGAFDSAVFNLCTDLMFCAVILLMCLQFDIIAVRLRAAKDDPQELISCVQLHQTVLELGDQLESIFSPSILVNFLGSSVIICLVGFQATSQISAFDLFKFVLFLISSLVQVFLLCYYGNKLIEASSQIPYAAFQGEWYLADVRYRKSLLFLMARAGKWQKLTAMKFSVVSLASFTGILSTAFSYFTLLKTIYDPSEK

SMILES | two-electrode voltage clamp, Xenopus oocytes, current traces [1] | two-electrode voltage clamp, Xenopus oocytes, current traces [2] | two-electrode voltage clamp, Xenopus oocytes, concentration-response [3] | two-electrode voltage clamp, Xenopus oocytes, concentration-response [4]
C=CC(O)CCCCC (centres unmarked) [1-octen-3-ol] | oocytes co-expressing CquiOR114b-1 and CquiOrco (top trace) | CquiOR114b-2 and CquiOrco (lower trace). Compounds were delivered in the following order | – | –
C#CC(O)CCCCC (centres unmarked) [1-octyn-3-ol] | oocytes co-expressing CquiOR114b-1 and CquiOrco (top trace) | CquiOR114b-2 and CquiOrco (lower trace). Compounds were delivered in the following order: 1-octyn-3-ol | – | –
CCCCCC(O)CC (centres unmarked) [3-octanol] | oocytes co-expressing CquiOR114b-1 and CquiOrco (top trace) | CquiOR114b-2 and CquiOrco (lower trace). Compounds were delivered in the following order | – | –
C=C[C@H](O)CCCCC [(R)-1-octen-3-ol] | – | – | currents elicited by ( R)-1-octen-3-ol were significantly lower than those obtained with its antipode | robust responses were elicited by ( R)-1-octen-3-ol in a dose-dependent manner
C#C[C@H](O)CCCCC [(R)-1-octyn-3-ol] | – | – | oocytes were challenged with enantiomers of 1-octen-3-ol, 1-octyn-3-ol, and 3-octanol | CquiOR118b showed dramatic enantioselectivity towards ( R)-as compared to ( S)-1-octyn-3-ol
CCCCC[C@H](O)CC [(R)-3-octanol] | – | – | robust responses to 3-octanol, with responses to the ( R)- and ( S)-stereoisomers being almost indistinguishable | the responses to ( R)-3-octanol were relatively high
C=C[C@@H](O)CCCCC [(S)-1-octen-3-ol] | – | – | significantly lower than those obtained with its antipode, ( S)-1-octen-3-ol | currents generated by its antipode, ( S)-1-octen-3-ol, were relatively very small
C#C[C@@H](O)CCCCC [(S)-1-octyn-3-ol] | – | – | showed preference for ( S)-isomers of 1-octen-3-ol and 1-octyn-3-ol | CquiOR118b showed dramatic enantioselectivity towards ( R)-as compared to ( S)-1-octyn-3-ol
CCCCC[C@@H](O)CC [(S)-3-octanol] | – | – | robust responses to 3-octanol, with responses to the ( R)- and ( S)-stereoisomers being almost indistinguishable | –
